The text below walks through data of patent publication US6204293A, “Inhibitors of protein isoprenyl transferases” (University of Pittsburgh, priority 1998, dated 2001).

Counter-ions that a name gives are not always drawn.

In general, % inhibition refers to the change of the read-out against control, counted positive when it falls. A higher % inhibition goes with a strong effect. In general, inhibition refers to the percentage by which the read-out fell short of the control.

The target in the first experiment is T1, Rat brain protein farnesyltransferase (Rattus norvegicus, UniProt Q02293+Q04631).
T1 construct: Rat brain protein farnesyltransferase activity is measured; from tissue; host or cells: rat brain
T1 sequence (Q02293 whole entry, one chain of several): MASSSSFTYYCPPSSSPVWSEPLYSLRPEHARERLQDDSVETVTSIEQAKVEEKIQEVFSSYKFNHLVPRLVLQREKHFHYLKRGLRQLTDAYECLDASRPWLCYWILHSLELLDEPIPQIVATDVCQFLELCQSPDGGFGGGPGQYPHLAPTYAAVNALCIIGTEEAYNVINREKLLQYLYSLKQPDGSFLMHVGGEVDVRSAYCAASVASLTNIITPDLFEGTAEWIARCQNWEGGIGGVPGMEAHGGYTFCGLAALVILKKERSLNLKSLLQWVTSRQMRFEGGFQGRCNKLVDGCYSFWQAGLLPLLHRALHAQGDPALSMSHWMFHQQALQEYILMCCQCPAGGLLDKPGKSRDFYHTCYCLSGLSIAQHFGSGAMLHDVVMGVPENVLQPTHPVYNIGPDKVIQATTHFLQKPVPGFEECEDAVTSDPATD
As to the kind of experiment: % inhibition of farnesylation, scintillation proximity assay with biotin-K Ras B fragment. Format: biochemical. The conditions noted are these: Table 1; 1 × 10^-5 M. The method in brief:
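Scintillation proximity read-out of farnesylation, using a biotinylated K Ras B fragment (0.1 mM final) in place of biotin-lamin. Enzyme purified from rat brain; results given as % inhibition.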
In the case of `CSCC[C@H](NC(=O)c1ccc(CNc2nccs2)cc1-c1ccccc1)C(=O)O` [Example 374], the “% inhibition at 1 × 10^-5 M” value is on record as 61%.
For the molecule `CSCC[C@H](NC(=O)c1ccc(CNc2cccc(CCC(=O)O)c2)cc1-c1ccccc1)C(=O)O` [Example 685], the “% inhibition at 1 × 10^-5 M” value worked out at 55%.

The experiment is the same for the next values; noted with them: Table 2; 1 × 10^-6 M.
As to `CSCC[C@H](NC(=O)c1ccc(CN(Cc2ccccc2)Cc2cccc(Oc3ccccc3)c2)cc1-c1ccccc1C)C(=O)O` [Example 514], the “% inhibition at 1 × 10^-6 M” value is 94%.
As to `CSCC[C@H](NC(=O)c1ccc(CNCCSC(C)(C)C)cc1-c1ccccc1)C(=O)O` [Example 627], the “% inhibition at 1 × 10^-6 M” value was 85%.
On to `CSCC[C@H](NC(=O)c1ccc(CN(CCCc2ccccc2)c2ccccc2)cc1-c1ccccc1C)C(=O)O` [Example 508], for which the “% inhibition at 1 × 10^-6 M” value is 95%.
In the case of `CSCC[C@H](NC(=O)c1ccc(CN[C@@H](CC2CCCCC2)[C@@H](O)[C@@H](O)CC(C)C)cc1-c1ccccc1)C(=O)O` [Example 716], the “% inhibition at 1 × 10^-6 M” value was determined as 69%.
Same read-out and setting: the value for `CSCC[C@H](NC(=O)c1ccc(NCC(CO)Cc2ccccc2)cc1-c1ccccc1C)C(=O)O` (stereo partly drawn) [Example 476] was 91%; that for `CSCC[C@H](NC(=O)c1ccc(S(=O)(=O)NCCC2CCCCC2)cc1-c1ccccc1C)C(=O)O` [Example 772] was 79%; that for `Cc1ccccc1-c1cc(CCc2ccc(Oc3ccccc3)cc2)ccc1C(=O)N[C@@H](CC[S+](C)[O-])C(=O)O` (stereo partly drawn) [Example 463] was 91%.
In the case of `CSCC[C@H](NC(=O)c1ccc(CN(C2CC2)C2(Cc3ccccc3)CCC2)cc1-c1ccccc1C)C(=O)O` [Example 329], the “% inhibition at 1 × 10^-6 M” value was 98%.
With `Cc1ccccc1-c1cc(CN(C2CC2)C2(Cc3ccccc3)CCCC2)ccc1C(=O)N[C@@H](CCS(C)(=O)=O)C(=O)O` [Example 345], the “% inhibition at 1 × 10^-6 M” value stood at 91%.
Turning to `CCSC[C@H](CC1CCCCC1)NCc1ccc(C(=O)N[C@@H](CCSC)C(=O)OCOC(=O)C(C)(C)C)c(-c2ccccc2C)c1` [Example 764], the “% inhibition at 1 × 10^-6 M” value was 88%.
For the molecule `CCOC(=O)c1ccc(NCc2ccc(C(=O)N[C@@H](CCSC)C(=O)O)c(-c3ccccc3)c2)cc1` [Example 646], the “% inhibition at 1 × 10^-6 M” value is given as 58%.
On the same count and under the same terms, the value for `CSCC[C@H](NC(=O)c1ccc(NCCO)cc1-c1ccccc1)C(=O)O` [Example 502] was 24%.
On to `CSCC[C@H](NC(=O)c1ccc(/C=C/c2cnccn2)cc1-c1ccccc1C)C(=O)O` [Example 495], for which the “% inhibition at 1 × 10^-6 M” value is listed as 95%.

Still in this experiment, the particulars now being: Table 3; 1 × 10^-7 M.
For `CCCC[C@H](CC1CCCCC1)NCc1ccc(C(=O)N[C@@H](CCSC)C(=O)O)c(-c2ccccc2C)c1` [Example 615], the “% inhibition at 1 × 10^-7 M” value was found to be 94%.
The same measure, in the same setting: the value for `CCCCN(CCCC)Cc1ccc(C(=O)N[C@@H](CCSC)C(=O)O)c(-c2ccccc2C)c1` [Example 917] was 78%; that for `CSCC[C@H](NC(=O)c1ccc(CN[C@H](CSC(C)(C)C)CC2CCCCC2)cc1-c1ccccc1C)C(=O)O` [Example 622] was 95%.
Same read-out and setting: the value for `CCSC[C@H](CC(C)C)N(C)Cc1ccc(C(=O)N[C@@H](CCSC)C(=O)O)c(-c2ccccc2C)c1` [Example 906] was 88%; that for `CSCC[C@H](NC(=O)c1ccc(CCc2cccc(Oc3ccccc3)c2)cc1-c1ccccc1C)C(=O)[O-].[Li+]` [Example 459] was 92%.

Staying with this experiment, now noted: Table 4; 1 × 10^-8 M.
On to `CCCCS(=O)(=O)N(Cc1ccc(C(=O)N[C@@H](CCSC)C(=O)O)c(-c2ccccc2C)c1)CC1CCCCC1` [Example 996], for which the “% inhibition at 1 × 10^-8 M” value is given as 80%.
The same measure, in the same setting: the value for `CSCC[C@H](NC(=O)c1ccc(CN(Cc2cncs2)C2CCSCC2)cc1-c1ccccc1C)C(=O)O` [Example 881] was 69%.
Turning to `CSCC[C@H](NC(=O)c1ccc(/C=C/c2ccc(Oc3cccc(Cl)c3)cc2)cc1-c1ccccc1C)C(=O)O` [Example 858], the “% inhibition at 1 × 10^-8 M” value is 60%.
For the molecule `CCSC[C@H](CC(C)C)NCc1ccc(C(=O)N[C@@H](CCSC)C(=O)O)c(-c2ccccc2C)c1` [Example 905], the “% inhibition at 1 × 10^-8 M” value was found to be 86%.
In the case of `C=C[C@H](CC1CCCCC1)NCc1ccc(C(=O)N[C@@H](CCSC)C(=O)O)c(-c2ccccc2C)c1` [Example 619], the “% inhibition at 1 × 10^-8 M” value stood at 95%.
Consider `CCCCS(=O)(=O)N(CCC1CCCCC1)Cc1ccc(C(=O)N[C@@H](CCSC)C(=O)O)c(-c2ccccc2C)c1` [Example 916], for which the “% inhibition at 1 × 10^-8 M” value is given as 96%.
Take `CCCCN(CCc1ccccc1)Cc1ccc(C(=O)N[C@@H](CCSC)C(=O)O)c(-c2ccccc2C)c1` [Example 928]: the “% inhibition at 1 × 10^-8 M” value is listed as 84%.

Staying with this experiment, now noted: read-out: % inhibition at 0.01 μM (**); Table 6; ** footnote 0.01 μM (title: 0.01 mM).
On to `CSCC[C@H](NC(=O)c1ccc(CO[C@H](COC(C)(C)C)CC2CCCCC2)cc1-c1ccccc1C)C(=O)O` [Example 1307], for which the inhibition at 0.01 µM came to 85%.

The experiment is the same for the next values; noted with them: read-out: % inhibition at 0.1 μM (*); Table 6; * footnote 0.1 μM (title: 0.1 mM).
As for `CCCCC(CCC1CCCCC1)OCc1ccc(C(=O)N[C@@H](CCSC)C(=O)O)c(-c2ccccc2C)c1` (stereo partly drawn) [Example 1192, N-[4-(1-Cyclohexylheptan-3-yloxymethyl-2-(2-methylphenyl)benzoyl]methioninelithium salt], the inhibition at 0.1 µM worked out at 91%.
As to `CSCC[C@H](NC(=O)c1ccc(COC(c2ccccc2)C2CCN(S(=O)(=O)c3ccccc3)CC2)cc1-c1ccccc1C)C(=O)O` (stereo partly drawn) [Example 1252, N-[4-(1-(4-(N-phenylsulfonyl)piperidinyl)benzyloxymethyl-2-(2-methylphenyl)benzoyl]methioninelithium salt], the inhibition at 0.1 µM turned out to be 84%.

Staying with this experiment, now noted: read-out: % inhibition at 1 × 10^-6 M.
For the molecule `CSCC[C@H](NC(=O)c1ccc(COCCc2ccccc2)cc1-c1ccccc1C)C(=O)O` [Example 587, N-[4-(2-phenylethoxymethyl)-2-(2-methylphenyl)benzoyl]methionine lithium salt], the inhibition at 1 µM is 97%.

The same experiment, now with this note: read-out: % inhibition at 1 × 10^-6 M; Table 2; 1 × 10^-6 M.
Turning to `CSCC[C@H](NC(=O)c1ccc(COC2CCN(Cc3ccccc3)CC2)cc1-c1ccccc1C)C(=O)O` [Example 807, N-[4-(1-benzylpiperidin-4-yloxymethyl)-2-(2-methylphenyl)benzoyl]methioninelithium salt], the inhibition at 1 µM is 90%.
The same measure, in the same setting: the value for `CSCC[C@H](NC(=O)c1ccc(COCc2ccc(CN(C)C)o2)cc1-c1ccccc1C)C(=O)O` [Example 435, N-[4-(5-N,N-dimethylaminomethylfuran-2-ylmethoxymethyl)-2-(2-methylphenyl)benzoyl]methionine] was 96%; that for `CSCC[C@H](NC(=O)c1cc(Cc2ccccc2)c(COCCCc2ccccc2)cc1-c1ccccc1C)C(=O)O` [Example 925] was 87%.

The same experiment, now with this note: read-out: % inhibition at 1 × 10^-7 M.
As to `COc1ccc(-c2ccc(COCc3ccc(C(=O)N[C@@H](CCSC)C(=O)O)c(-c4ccccc4C)c3)o2)cc1` [Example 446, N-[4-(5-(4-methoxyphenyl)furan-2-ylmethoxymethyl)-2-(2-methylphenyl)benzoyl]methionine lithium salt], the inhibition at 0.1 µM is 91%.
In the case of `CSCC[C@H](NC(=O)c1ccc(COC(Cc2ccccc2)c2ccco2)cc1-c1ccccc1C)C(=O)O` (stereo partly drawn) [Example 534, N-[4-(1-furan-2-yl-2-phenylethoxymethyl)-2-(2-methylphenyl)benzoyl]methionine lithium salt], the inhibition at 0.1 µM was determined as 84%.
Turning to `CSCC[C@H](NC(=O)c1ccc(COCc2ccccc2)cc1-c1ccccc1C)C(=O)O` [Example 571, N-[4-(benzyloxymethyl)-2-(2-methylphenyl)benzoyl]methionine lithium salt], the inhibition at 0.1 µM came to 88%.
Turning to `CSCC[C@H](NC(=O)c1ccc(COCc2ccc(-c3ccc(SC)cc3)o2)cc1-c1ccccc1C)C(=O)O` [Example 447, N-[4-(5-(4-methylthiophenyl)furan-2-ylmethoxymethyl)-2-(2-methylphenyl)benzoyl]methionine lithium salt], the inhibition at 0.1 µM was found to be 91%.
`COc1ccc(COCc2ccc(C(=O)N[C@@H](CCSC)C(=O)O)c(-c3ccccc3C)c2)cc1` [Example 935, N-[4-(4-methoxybenzyloxymethyl)-2-(2-methylphenyl)benzoyl]methionine lithium salt]: the inhibition at 0.1 µM worked out at 72%.

The experiment is the same for the next values; noted with them: read-out: % inhibition at 1 × 10^-7 M; Table 3; 1 × 10^-7 M.
In the case of `CSCC[C@H](NC(=O)c1ccc(CSc2ccccc2C(C)C)cc1-c1ccccc1C)C(=O)O` [Example 739], the inhibition at 0.1 µM amounted to 83%.
For `CSCC[C@H](NC(=O)c1ccc(COc2cccc3ccccc23)cc1-c1ccccc1C)C(=O)O` [Example 574, N-[4-(naphth-1-yloxymethyl)-2-(2-methylphenyl)benzoyl]methionine], the inhibition at 0.1 µM was found to be 81%.

Still in this experiment, the particulars now being: read-out: % inhibition at 1 × 10^-8 M.
For the molecule `CSCC[C@H](NC(=O)c1ccc(COCCc2ccccc2Cl)cc1-c1ccccc1C)C(=O)O` [Example 588, N-[4-(2-(2-chlorophenyl)ethoxymethyl)-2-(2-methylphenyl)benzoyl]methionine lithium salt], the inhibition at 0.01 µM stood at 68%.
The same measure, in the same setting: the value for `CSCC[C@H](NC(=O)c1ccc(COCc2cccc(C(C)C)c2)cc1-c1ccccc1C)C(=O)O` [Example 939, N-[4-(3-isopropylbenzyloxymethyl)-2-(2-methylphenyl)benzoyl]methionine lithium salt] was 72%; that for `CSCC[C@H](NC(=O)c1ccc(COCc2ccc(-c3ccc(C(C)C)cc3)o2)cc1-c1ccccc1C)C(=O)O` [Example 820, N-[4-(5-(4-isopropylphenyl)furan-2-ylmethoxymethyl)-2-(2-methylphenyl)benzoyl]methionine lithium salt] was 66%.

The same experiment, now with this note: read-out: % inhibition at 1 × 10^-8 M; Table 4; 1 × 10^-8 M.
Take `CSCC[C@H](NC(=O)c1ccc(OCCCCC2CCCCC2)cc1-c1ccccc1C)C(=O)O` [Example 567, N-[4-(4-cyclohexyl)butoxy-2-(2-methylphenyl)benzoyl]methionine, lithium salt]: the inhibition at 0.01 µM worked out at 69%.
